# Experimental data from publication PMC3516572, “MiniCD4 Microbicide Prevents HIV Infection of Human Mucosal Explants and Vaginal Transmission of SHIV162P3 in Cynomolgus Macaques” (PLoS Pathogens, 2012).
# Legend:
# SHIV162P3 = conditions: cited from earlier work
# From the text: The use of effective therapeutic drugs, such as tenofovir and more recently dapivirine tested in phase III trial, targeting post-entry events in the viral replication cycle (reverse transcription, integration and viral maturation) remains attractive, however the impact of their dual use in prevention and therapy on the potential induction of resistance evolution remains controversial. In contrast drugs that target the initial steps of viral attachment to CD4 and one of two co-receptors (CCR5 or CXCR4) triggering viral fusion with susceptible targets cells (entry inhibitors) are not widel ...
# PM-1 T cells = experiment: MTT viability assay on PM-1 T cells; assay type: cell-based; conditions: 24 h at 37°C, then MTT 2 h; M48U1 ten-fold dilutions, highest concentrations tested; nonoxynol-9 at 500 ng/mL; two independent experiments in triplicates
# Experimental: (§1) Penile tissues and PM-1 T cells were incubated in complete RPMI medium supplemented with ten-fold dilutions of M48U1 for 24 h at 37°C. Nonoxynol-9 microbicide (tested at 500 ng/mL) was employed as cytotoxic reference. The compounds were removed and the tissue explants and cells were incubated for 2 h in medium containing 500 µg/mL of 3-(4,5-dimethylthiazol-2-yl)-2,5-diphenyltetrazolium bromide (MTT). For tissue, after releasing the formazan in ethanol overnight, cytotoxicity was determined by measuring the optical density of the purple formazan product at 570–690 nm using Synergy HT multi-detection microplate reader. For PM-1 cells, the absorption of the formazan product was determined after lysis of the cells.
# penile tissue explants = experiment: MTT viability assay on penile tissue explants; assay type: cell-based, human; conditions: 24 h at 37°C, then MTT 2 h; M48U1 ten-fold dilutions, highest concentrations tested; nonoxynol-9 at 500 ng/mL; two independent experiments in triplicates
# From the text: Cervical tissue was obtained from patients undergoing planned therapeutic hysterectomy at St. George's Hospital in London, United Kingdom. Surgically resected specimens of colorectal tissue were collected at St. George's Hospital, London, United Kingdom. Penile tissue (glans) was obtained from individuals undergoing gender reassignment surgery at Charing Cross Hospital. All tissues were collected after signed informed consent was received from all patients and under protocols approved by the Local Research Ethics Committee (National Research Ethic Service NHS). On arrival in the laboratory, resected tissue was cut into 2–3 mm^3 explants comprising both epithelial and stromal tissue or muscularis mucosae, depending on the tissue, as described previously, [22].
# as §1, with “The compounds were removed and the tissue explants and cells were incubated for 2 h in medium containing 500 µg/mL of 3-(4,5-dimethylthiazol-2-yl)-2,5-diphenyltetrazolium bromide (MTT).” left out
smiles,measurement,setting,value
COc1ccnc2[nH]cc(C(=O)C(=O)N3CCN(C(=O)c4ccccc4)C[C@H]3C)c12 [BMS-378806],Protection of NHP from vaginal challenge with SHIV162P3,SHIV162P3,could protect NHP
CCCCCCCCCc1ccc(OCCOCCOCCOCCOCCOCCOCCOCCOCCO)cc1 [nonoxynol-9],Cytotoxicity (MTT) in PM-1 T-cell line,PM-1 T cells,significant toxicity
same,Cytotoxicity (MTT) in penile tissue,penile tissue explants,significant toxicity
